molecular target: T1, human matriptase (Homo sapiens, UniProt Q9Y5Y6); experiment: Assay for inhibition of matriptase (fluorogenic AMC substrate); assay type: biochemical; conditions: calculated from velocity by nonlinear regression, competitive inhibition model (GraphPad Prism 5)
T1 sequence (Q9Y5Y6 1-855): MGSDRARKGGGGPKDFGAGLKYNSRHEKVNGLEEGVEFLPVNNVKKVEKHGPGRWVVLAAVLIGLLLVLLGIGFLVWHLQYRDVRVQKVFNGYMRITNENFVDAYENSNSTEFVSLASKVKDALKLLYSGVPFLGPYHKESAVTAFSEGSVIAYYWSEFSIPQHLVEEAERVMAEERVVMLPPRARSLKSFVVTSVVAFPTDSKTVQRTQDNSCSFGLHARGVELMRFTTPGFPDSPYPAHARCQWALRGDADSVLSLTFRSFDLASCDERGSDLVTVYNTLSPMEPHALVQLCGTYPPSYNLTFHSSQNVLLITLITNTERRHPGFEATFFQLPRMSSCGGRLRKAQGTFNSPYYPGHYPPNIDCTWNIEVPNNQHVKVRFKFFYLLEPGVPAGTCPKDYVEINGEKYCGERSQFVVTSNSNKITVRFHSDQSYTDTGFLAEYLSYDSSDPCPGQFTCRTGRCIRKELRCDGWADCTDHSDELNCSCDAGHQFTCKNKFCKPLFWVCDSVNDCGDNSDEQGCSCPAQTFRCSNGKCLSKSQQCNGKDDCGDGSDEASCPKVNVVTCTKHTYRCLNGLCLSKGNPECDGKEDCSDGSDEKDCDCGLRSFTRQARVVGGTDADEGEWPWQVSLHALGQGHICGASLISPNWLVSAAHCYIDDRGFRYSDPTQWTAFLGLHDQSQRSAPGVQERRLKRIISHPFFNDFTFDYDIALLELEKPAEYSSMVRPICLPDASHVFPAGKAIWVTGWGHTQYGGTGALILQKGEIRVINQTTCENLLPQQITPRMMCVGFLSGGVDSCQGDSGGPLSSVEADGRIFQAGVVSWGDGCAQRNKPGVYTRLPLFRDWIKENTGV
From the text: The following describes an assay for matriptase as a representative serine protease and is based upon reported methods. (Désilets, A.; Longpré, J.-M.; Beaulieu, M.-E.; Leduc, R. FEBS Lett. 2006, 580, 2227-2232.) Similar assays are applicable and available for other serine proteases.
Enzyme activities were monitored by measuring the release of fluorescence from AMC-coupled peptides (excitation, 360 nm; emission, 441 nm) in a FLX-800 TBE microplate reader (Bio-Tek Instruments, Winooski, Vt., USA). The purified human matriptase was active site titrated with the burst titrant 4-methylumbelliferyl-p-guanidino benzoate (MUGB). Enzymatic assays with matriptase were performed in Tris HCl 100 mM containing 500 µg/mL BSA at pH 9. Human soluble furin was expressed, purified, titrated and assayed as described in the literature (Denault, J. B.; Lazure, C.; Day, R; Leduc, R. Protein Expr. Purif. 2000, 19, 113-124.) The purified HAT protein was active-site titrated with MUGB. Assays with HAT were performed in 50 mM Tris-HCl at pH 8.6.
Enzymes were diluted to concentrations ranging from 4 to 12.5 nM for furin, from 2 to 7 nM for matriptase and 20 pM for HAT and incubated with either 10 μM (for initial screening) […] or appropriate dilutions (for kinetic analysis), for example 0, 500, 1000, 2000 nM or 0, 250, 500, 1000, 2500, 5000 nM, of the test compound for 15 min at RT. Residual enzyme activity was measured by following the hydrolysis of a fluorogenic substrate (4 μM Boc-Arg-Val-Arg-Arg-AMC for furin, Boc-Gln-Ala-Arg-AMC for matriptase and 4 μM Boc-Val-Pro-Arg-AMC for HAT) (Bachem Bioscience, King of Prussia, Pa., USA). Saturation curves were performed in the presence of increasing concentrations of test compounds. Data from three independent experiments or more were typically averaged and residual velocities were plotted as a function of test compound concentration. Data were fitted by non-linear regression analysis to Equation (1) (Bieth, J. G. Methods Enzymol. 1995, 248, 59-84.) using the Enzfitter software (Biosoft, Ferguson, Mo., USA).
vi/v0=1−{([E]0+[I]0+Ki(app))−(([E]0+[I]0+Ki(app))^2−4[E]0[I]0)^1/2}/2[E]0 Equation (1): […]
where v0 and vi are the steady-state rates of substrate hydrolysis in the absence and presence of inhibitor, respectively, [E]0, the initial concentration of enzyme, [I]0, the initial concentration of inhibitor and Ki(app) the substrate-dependent equilibrium dissociation constant. The substrate-independent constant Ki was calculated using Equation (2) (Bieth, J. G. Methods Enzymol. 1995, 248, 59-84.),
Kt=Ki(app)(1+[S]0/Km) Equation (2): […]
The table presents results for matriptase inhibition for representative compounds of the invention.
Ki's can be calculated from the velocity using nonlinear regression analysis. The model used is a competitive enzyme inhibition equation where KmObs=Km*(1+[I]/Ki) and Y=Vmax*X/(KmObs+X). X is the substrate concentration. Y the velocity.

SMILES	Ki [nM]
C[C@@H]1CN[C@@H](C2CC2)C(=O)N(C)[C@H](C)C(=O)N[C@H](Cc2ccc(C(=N)N)cc2)C(=O)NCCCc2ccccc2O1 [Compound 459]	245
C[C@@H]1C(=O)N[C@H](Cc2ccc(C(=N)N)cc2)C(=O)NCCCc2ccc(F)cc2OCCN[C@@H](C2CC2)C(=O)N1C [Compound 451]	1460

same assay, conditions: residual matriptase velocity with test compound, substrate Boc-Gln-Ala-Arg-AMC; method gives 10 μM for initial screening; lower = more inhibition

SMILES	Velocity (FU/min)
C[C@@H]1C(=O)N[C@H](CCCCNC(N)=O)C(=O)NCCCc2ccc(F)cc2OCCN[C@@H](C2CC2)C(=O)N1C [Compound 492]	2440
C[C@@H]1CCc2ccc(F)cc2OCCN[C@@H](C2CC2)C(=O)N(C)[C@H](C)C(=O)N[C@H](Cc2ccc(C(=N)N)cc2)C(=O)N1 [Compound 457]	1750
C[C@@H]1C(=O)N[C@H](CCCNC(N)=O)C(=O)NCCCc2ccc(F)cc2OCCN[C@@H](C2CC2)C(=O)N1C [Compound 491]	2440
C[C@@H]1C(=O)N[C@H](Cc2ccc(C(=N)N)cc2)C(=O)NCc2ccccc2Sc2ccccc2CN[C@@H](C2CC2)C(=O)N1C [Compound 475]	2125
C[C@@H]1C(=O)N[C@H](Cc2ccc(C(=N)N)cc2)C(=O)NCCCC2CCCCC2OCCN[C@@H](C2CC2)C(=O)N1C (stereo partly drawn) [Compound 480]	1875
C[C@@H]1C(=O)N[C@H](Cc2ccc(C(=N)N)cc2)C(=O)NCCc2cccc(c2)CN[C@@H](C2CC2)C(=O)N1C [Compound 473]	2375
C[C@@H]1C(=O)N[C@H](CCCNC(=N)N)C(=O)NCCCc2ccc(F)cc2OCCN[C@@H](C2CC2)C(=O)N1C [Compound 488]	2250
C[C@@H]1CN[C@@H](C2CC2)C(=O)N(C)[C@H](C)C(=O)N[C@H](Cc2ccc(C(=N)N)cc2)C(=O)NCCCc2ccccc2O1 [Compound 459]	140
C[C@@H]1C(=O)N[C@H](Cc2ccc(C(=N)N)cc2)C(=O)NCCCc2ccccc2OCCN[C@@H](C2CC2)C(=O)N1C [Compound 464]	1875
C[C@@H]1CN[C@@H](C2CC2)C(=O)N(C)[C@H](C)C(=O)N[C@H](Cc2ccc(C(=N)N)cc2)C(=O)NCCCc2ccc(F)cc2O1 [Compound 458]	812
C[C@@H]1C(=O)N[C@H](CCCN)C(=O)NCCCc2ccc(F)cc2OCCN[C@@H](C2CC2)C(=O)N1C [Compound 487]	2500
C[C@@H]1C(=O)N[C@H](Cc2cccnc2)C(=O)NCCCc2ccc(F)cc2OCCN[C@@H](C2CC2)C(=O)N1C [Compound 494]	2125
C[C@@H]1C(=O)N[C@H](CCC(N)=O)C(=O)NCCCc2ccc(F)cc2OCCN[C@@H](C2CC2)C(=O)N1C [Compound 490]	2440
C[C@@H]1CN[C@@H](C2CC2)C(=O)N(C)[C@H](C)C(=O)N[C@H](Cc2ccc(C(N)=O)cc2)C(=O)NCCCc2ccccc2O1 [Compound 498]	580
C[C@@H]1C(=O)N[C@H](Cc2c[nH]cn2)C(=O)NCCCc2ccc(F)cc2OCCN[C@@H](C2CC2)C(=O)N1C [Compound 493]	2700
C[C@@H]1C(=O)N[C@H](Cc2ccc(C(=N)N)cc2)C(=O)NC/C=C/c2cccc(c2)OCCN[C@@H](C2CC2)C(=O)N1C [Compound 482]	2500
C[C@@H]1NCCOc2cc(F)ccc2CCCNC(=O)[C@@H](Cc2ccc(C(=N)N)cc2)NC(=O)[C@@H](C)N(C)C1=O [Compound 467]	2300
C[C@@H]1C(=O)N[C@H](Cc2ccc(C(=N)N)cc2)C(=O)NC/C=C/c2ccccc2OCCN[C@@H](C2CC2)C(=O)N1C [Compound 465]	1125
C[C@@H]1C(=O)N[C@H](Cc2ccc(C(=N)N)cc2)C(=O)NCCc2ccccc2OCCN[C@@H](C2CC2)C(=O)N1C [Compound 481]	1875
C[C@@H]1C(=O)N[C@H](Cc2ccc(C(=N)N)cc2)C(=O)NCCCc2ccc(F)cc2OCCN[C@@H](C2CC2)C(=O)N1C [Compound 451]	1590
C[C@@H]1C(=O)N[C@H](Cc2cscn2)C(=O)NCCCc2ccc(F)cc2OCCN[C@@H](C2CC2)C(=O)N1C [Compound 496]	2700
C[C@@H]1C(=O)N[C@H](Cc2ccc(C(N)=O)cc2)C(=O)NCCCc2ccc(C(=N)N)cc2OCCN[C@@H](C2CC2)C(=O)N1C [Compound 499]	937
C[C@@H]1C(=O)N[C@H](Cc2ccc(C(=N)N)cc2)C(=O)NCCCc2ccc(F)cc2OCCN[C@H](C2CC2)C(=O)N1C [Compound 456]	2250
C[C@@H]1C(=O)N[C@H](CCCCN)C(=O)NCCCc2ccc(F)cc2OCCN[C@@H](C2CC2)C(=O)N1C [Compound 485]	2625
C[C@@H]1C(=O)N[C@H](Cc2ccc(C(=N)N)cc2)C(=O)NCCc2ccccc2CCCCN[C@@H](C2CC2)C(=O)N1C [Compound 478]	2440
C[C@@H]1C(=O)N[C@H](Cc2ccc(C(=N)N)cc2)C(=O)NCCCc2ccc(C(=N)N)cc2OCCN[C@@H](C2CC2)C(=O)N1C [Compound 461]	812
C[C@@H]1C(=O)N[C@H](Cc2ccncc2)C(=O)NCCCc2ccc(F)cc2OCCN[C@@H](C2CC2)C(=O)N1C [Compound 495]	2700
C[C@H]1C(=O)N[C@H](Cc2ccc(C(=N)N)cc2)C(=O)NCCCc2ccc(F)cc2OCCN[C@@H](C2CC2)C(=O)N1C [Compound 455]	2440
C[C@@H]1C(=O)N[C@H](Cc2ccc(C(=N)N)cc2)C(=O)NCCOc2cccc(c2)OCCN[C@@H](C2CC2)C(=O)N1C [Compound 479]	2190
C[C@@H]1C(=O)N[C@@H](Cc2ccc(C(=N)N)cc2)C(=O)NCCCc2ccc(F)cc2OCCN[C@@H](C2CC2)C(=O)N1C [Compound 454]	2190

test system: tumor metastasis; experiment: not given; conditions: cited from earlier work

SMILES	activity in an in vivo model of tumor metastasis
COC(=O)NC(CCC(=O)O)(Cc1cccc(C(=N)N)c1)C(=O)NCC(=O)N[C@H](C=O)CCCNC(=N)N (stereo partly drawn) [CVS-3983]	has shown activity

Source: US20120270769A1, “METHODS OF USING MACROCYCLIC INHIBITORS OF SERINE PROTEASE ENZYMES” (priority 2009, published 2012)
